Reference: patent US10766869B2, “Triazoles for the treatment of demyelinating dieases” (Vertex Pharmaceuticals Incorporated, priority 2015, dated 2020)

System: primary rat mixed cortical cells
Experiment: In vitro myelination assay (MBP positive myelin strands, fold myelin pixels above background)
Assay type: cell-based
Settings: for fold induction at 1 µM / fold induction at 10 µM: Rattus norvegicus, read-out: Fold myelin pixels above background relative to baseline of no added compound
How it was run: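 P1 rat cortical cells (neurons, OPCs, oligodendrocytes, astrocytes, microglia) were cultured 14 days at 37 °C with compound, with half-medium changes containing 1× compound on days 6 and 10. Fixed cells were immunostained for MBP and imaged at 10×. Total MBP myelin pixels per well were expressed as fold above no-compound baseline at 1.0 μM and 10.0 μM.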

SMILES	fold induction at 1 µM (1.0 μM compound)	fold induction at 10 µM (10.0 μM compound)	Fold myelin pixels above background relative to baseline of no added compound (1.0 μM compound)	Fold myelin pixels above background relative to baseline of no added compound (10.0 μM compound)
CCOCCOC1CCN(c2cc(C)cc(Nc3ncn(-c4cc(F)cc(F)c4)n3)c2)CC1 [Compound 962, 1-(3,5-difluorophenyl)-N-[3-[4-(2-ethoxyethoxy)-1-piperidyl]-5-methyl-phenyl]-1,2,4-triazol-3-amine]	1 to 10	1 to 10		
Cc1cc(OCC(=O)N2CCCC2)cc(Nc2ncn(-c3cc(F)cc(F)c3)n2)c1C [Compound 965, 2-[3-[[1-(3,5-difluorophenyl)-1,2,4-triazol-3-yl]amino]-4,5-dimethyl-phenoxy]-1-pyrrolidin-1-yl-ethanone]	10 to 100	10 to 100		
Cc1cc(Nc2ncn(-c3cccnc3)n2)cc(N2CC3(C2)CN(C(C)C)C3)c1 [Compound 966, N-[3-(2-isopropyl-2,6-diazaspiro[3.3]heptan-6-yl)-5-methyl-phenyl]-1-(3-pyridyl)-1,2,4-triazol-3-amine]	1 to 10	≤ 1		
Cc1cc(Nc2ncn(-c3cnccn3)n2)cc(N2CC3(C2)CN(C(C)C)C3)c1 [Compound 967, N-[3-(2-isopropyl-2,6-diazaspiro[3.3]heptan-6-yl)-5-methyl-phenyl]-1-pyrazin-2-yl-1,2,4-triazol-3-amine]	10 to 100	≤ 1		
Cc1cc(NCC2CN(C3CC3)CCO2)cc(Nc2ncn(-c3cc(F)cc(F)c3)n2)c1 (stereo not shown) [Compound 968, N3-[(4-cyclopropylmorpholin-2-yl)methyl]-N1-[1-(3,5-difluorophenyl)-1,2,4-triazol-3-yl]-5-methyl-benzene-1,3-diamine]	1 to 10	1 to 10		
Cc1cc(Nc2ncn(-c3cc(F)cc(F)c3)n2)c(F)c(N(C)C2COC2)c1 [Compound 969, N3-[1-(3,5-difluorophenyl)-1,2,4-triazol-3-yl]-2-fluoro-N1,5-dimethyl-N1-(oxetan-3-yl)benzene-1,3-diamine]	1 to 10	≤ 1		
Cc1cc(Nc2ncn(-c3cc(F)cc(F)c3)n2)cc(NC2CCOC(C)(C)C2)c1 (stereo not shown) [Compound 970, N3-[1-(3,5-difluorophenyl)-1,2,4-triazol-3-yl]-N1-(2,2-dimethyltetrahydropyran-4-yl)-5-methyl-benzene-1,3-diamine]	10 to 100	≤ 1		
CC(=O)N1CC(Oc2cc(C)c(C)c(Nc3ncn(-c4cc(F)cc(F)c4)n3)c2)C1 [Compound 971, 1-[3-[3-[[1-(3,5-difluorophenyl)-1,2,4-triazol-3-yl]amino]-4,5-dimethyl-phenoxy]azetidin-1-yl]ethanone]	1 to 10	1 to 10		
Cc1cc(Nc2ncn(-c3cc(F)cc(F)c3)n2)cc(N2CCOC(C3CCCO3)C2)c1 (stereo not shown) [Compound 972, 1-(3,5-difluorophenyl)-N-[3-methyl-5-(2-tetrahydrofuran-2-ylmorpholin-4-yl)phenyl]-1,2,4-triazol-3-amine]			− (≤1)	+ (>1 to 10x)
CCOCCN1CCN(c2cc(C)cc(Nc3ncn(-c4cc(F)cc(F)c4)n3)c2)CC1 [Compound 973, 1-(3,5-difluorophenyl)-N-[3-[4-(2-ethoxyethyl)piperazin-1-yl]-5-methyl-phenyl]-1,2,4-triazol-3-amine]	10 to 100	≤ 1		
CCC1COC(C)CN1CCNc1cc(C)cc(Nc2ncn(-c3cc(F)cc(F)c3)n2)c1 (stereo not shown) [Compound 974, N3-[1-(3,5-difluorophenyl)-1,2,4-triazol-3-yl]-N1-[2-(5-ethyl-2-methyl-morpholin-4-yl)ethyl]-5-methyl-benzene-1,3-diamine]	10 to 100	≤ 1		
Cc1cc(Nc2ncn(-c3cc(F)cc(F)c3)n2)cc(N2CC(N3CCN(C)CC3)C2)c1 [Compound 975, 1-(3,5-difluorophenyl)-N-[3-methyl-5-[3-(4-methylpiperazin-1-yl)azetidin-1-yl]phenyl]-1,2,4-triazol-3-amine]	1 to 10	≤ 1		
CCOC1CCN(c2cc(C)cc(Nc3ncn(-c4cc(F)cc(F)c4)n3)c2)CC1 [Compound 976, 1-(3,5-difluorophenyl)-N-[3-(4-ethoxy-1-piperidyl)-5-methyl-phenyl]-1,2,4-triazol-3-amine]	1 to 10	10 to 100		
Cc1cc(Nc2ncn(-c3ccc(F)c(F)c3)n2)cc(N2CC3(C2)CN(C(C)C)C3)c1 [Compound 977, 1-(3,4-difluorophenyl)-N-[3-(2-isopropyl-2,6-diazaspiro[3.3]heptan-6-yl)-5-methyl-phenyl]-1,2,4-triazol-3-amine]	1 to 10	≤ 1		
Cc1cc(Nc2ncn(-c3ccc(F)c(F)c3)n2)c(F)c(OC2CCOC2)c1 (stereo not shown) [Compound 978, 1-(3,4-difluorophenyl)-N-(2-fluoro-5-methyl-3-tetrahydrofuran-3-yloxy-phenyl)-1,2,4-triazol-3-amine]	10 to 100	1 to 10		
[2H]C1([2H])N(c2cc(C)cc(Nc3ncn(-c4cc(F)cc(F)c4)n3)c2)C([2H])([2H])C([2H])([2H])N(C2COC2)C1([2H])[2H] [Compound 979, 1-(3,5-difluorophenyl)-N-[3-methyl-5-[2,2,3,3,5,5,6,6-octadeuterio-4-(oxetan-3-yl)piperazin-1-yl]phenyl]-1,2,4-triazol-3-amine]	100 to 1000	≤ 1		
Cc1cc(Nc2ncn(-c3cc(F)cc(F)c3)n2)nc(OCC2CC2)c1 [Compound 980, 6-(cyclopropylmethoxy)-N-[1-(3,5-difluorophenyl)-1,2,4-triazol-3-yl]-4-methyl-pyridin-2-amine]	1 to 10	1 to 10		
Cc1cc(Nc2ncn(-c3cc(F)cc(F)c3)n2)cc(N2CCCC3COCC32)c1 (stereo not shown) [Compound 981, N-[3-(3,4,4a,5,7,7a-hexahydro-2H-furo[3,4-b]pyridin-1-yl)-5-methyl-phenyl]-1-(3,5-difluorophenyl)-1,2,4-triazol-3-amine]	1 to 10	10 to 100		
[2H]C1([2H])OC([2H])([2H])C([2H])([2H])N(c2cc(C)cc(Nc3ncn(-c4cc(F)cc(F)c4)n3)c2)C1([2H])[2H] [Compound 982, 1-(3,5-difluorophenyl)-N-[3-methyl-5-(2,2,3,3,5,5,6,6-octadeuteriomorpholin-4-yl)phenyl]-1,2,4-triazol-3-amine]	10 to 100	≤ 1		
Cc1cc(Nc2ncn(-c3cc(F)cc(F)c3)n2)cc(N2CCC(CN3CCOCC3)C2)c1 (stereo not shown) [Compound 983, 1-(3,5-difluorophenyl)-N-[3-methyl-5-[3-(morpholinomethyl)pyrrolidin-1-yl]phenyl]-1,2,4-triazol-3-amine]	1 to 10	1 to 10		
Cc1cc(Nc2ncn(-c3cc(F)cc(F)c3)n2)cc(N2CCC(CN3CCOCC3)CC2)c1 [Compound 984, 1-(3,5-difluorophenyl)-N-[3-methyl-5-[4-(morpholinomethyl)-1-piperidyl]phenyl]-1,2,4-triazol-3-amine]	10 to 100	≤ 1		
CCC(CNc1cc(C)cc(Nc2ncn(-c3cc(F)cc(F)c3)n2)c1)N1CCOCC1 (stereo not shown) [Compound 985, N3-[1-(3,5-difluorophenyl)-1,2,4-triazol-3-yl]-5-methyl-N1-(2-morpholinobutyl)benzene-1,3-diamine]	1 to 10	1 to 10		
Cc1cc(Nc2ncn(-c3cc(F)cc(F)c3)n2)cc(N2CC[C@H](N3CCCC3)C2)c1 [Compound 986, 1-(3,5-difluorophenyl)-N-[3-methyl-5-[(3S)-3-pyrrolidin-1-ylpyrrolidin-1-yl]phenyl]-1,2,4-triazol-3-amine]	1 to 10	≤ 1		
CCN(CC)CCN1CCN(c2cc(C)cc(Nc3ncn(-c4cc(F)cc(F)c4)n3)c2)CC1 [Compound 987, N-[3-[4-[2-(diethylamino)ethyl]piperazin-1-yl]-5-methyl-phenyl]-1-(3,5-difluorophenyl)-1,2,4-triazol-3-amine]	1 to 10	≤ 1		
Cc1cc(Nc2ncn(-c3cc(F)cc(F)c3)n2)cc(N2CCC(N3CCOCC3C)CC2)c1 (stereo not shown) [Compound 988, 1-(3,5-difluorophenyl)-N-[3-methyl-5-[4-(3-methylmorpholin-4-yl)-1-piperidyl]phenyl]-1,2,4-triazol-3-amine]	10 to 100	1 to 10		
Cc1cc(Nc2ncn(-c3cc(F)cc(F)c3)n2)c(F)c(N2CCN(C(CO)CO)CC2)c1 [Compound 989, 2-[4-[3-[[1-(3,5-difluorophenyl)-1,2,4-triazol-3-yl]amino]-2-fluoro-5-methyl-phenyl]piperazin-1-yl]propane-1,3-diol]	≤ 1	≤ 1		
Cc1cc(Nc2ncn(-c3cc(F)cc(F)c3)n2)cc(N2CCN(CCCO)CC2)c1 [Compound 990, 3-[4-[3-[[1-(3,5-difluorophenyl)-1,2,4-triazol-3-yl]amino]-5-methyl-phenyl]piperazin-1-yl]propan-1-ol]	≤ 1	≤ 1		
Cc1cc(Nc2ncn(-c3cc(F)cc(F)c3)n2)cc(N2CCN(C(=O)C3CCOCC3)CC2)c1 [Compound 991, [4-[3-[[1-(3,5-difluorophenyl)-1,2,4-triazol-3-yl]amino]-5-methyl-phenyl]piperazin-1-yl]-tetrahydropyran-4-yl-methanone]	10 to 100	1 to 10		
Cc1cc(Nc2ncn(-c3cc(F)cc(F)c3)n2)cc(NC2CCN(CC(F)F)CC2)c1 [Compound 992, N1-[1-(2,2-difluoroethyl)-4-piperidyl]-N3-[1-(3,5-difluorophenyl)-1,2,4-triazol-3-yl]-5-methyl-benzene-1,3-diamine]	1 to 10	1 to 10		
